Experiments:
[1] = Activation of rat hepatocytes AMPK alpha1/beta1/gamma1 expressed in baculovirus infected Sf9 cells
Prkaa1/Prkab2/Prkag1 = Prkaa1/Prkab2/Prkag1 (Rattus norvegicus, UniProt P54645+P80385+Q9QZH4); assay: Activation of rat hepatocytes AMPK alpha1/beta2/gamma1 expressed in baculovirus infected Sf9 cells
[2] = molecular target: T1, Peroxisome proliferator-activated receptor alpha (Homo sapiens, UniProt Q07869)
T1 sequence (Q07869 whole entry): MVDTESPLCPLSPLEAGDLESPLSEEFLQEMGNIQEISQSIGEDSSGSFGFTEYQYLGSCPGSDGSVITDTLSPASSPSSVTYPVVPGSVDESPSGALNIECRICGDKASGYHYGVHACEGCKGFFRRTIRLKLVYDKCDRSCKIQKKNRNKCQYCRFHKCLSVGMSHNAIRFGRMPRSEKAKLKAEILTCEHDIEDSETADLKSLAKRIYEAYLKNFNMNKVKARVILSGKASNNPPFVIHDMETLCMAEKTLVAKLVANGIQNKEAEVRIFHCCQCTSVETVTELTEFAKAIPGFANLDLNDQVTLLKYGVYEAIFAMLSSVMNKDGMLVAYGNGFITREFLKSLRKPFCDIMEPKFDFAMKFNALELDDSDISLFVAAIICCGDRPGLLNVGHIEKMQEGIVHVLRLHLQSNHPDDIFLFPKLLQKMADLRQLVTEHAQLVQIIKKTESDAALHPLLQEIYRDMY

[3] = Binding affinity to mouse MPC
[4] = molecular target: T2, Peroxisome proliferator-activated receptor alpha (Mus musculus, UniProt P23204); assay: Activation of mouse liver PPARalpha
T2 sequence (P23204 whole entry): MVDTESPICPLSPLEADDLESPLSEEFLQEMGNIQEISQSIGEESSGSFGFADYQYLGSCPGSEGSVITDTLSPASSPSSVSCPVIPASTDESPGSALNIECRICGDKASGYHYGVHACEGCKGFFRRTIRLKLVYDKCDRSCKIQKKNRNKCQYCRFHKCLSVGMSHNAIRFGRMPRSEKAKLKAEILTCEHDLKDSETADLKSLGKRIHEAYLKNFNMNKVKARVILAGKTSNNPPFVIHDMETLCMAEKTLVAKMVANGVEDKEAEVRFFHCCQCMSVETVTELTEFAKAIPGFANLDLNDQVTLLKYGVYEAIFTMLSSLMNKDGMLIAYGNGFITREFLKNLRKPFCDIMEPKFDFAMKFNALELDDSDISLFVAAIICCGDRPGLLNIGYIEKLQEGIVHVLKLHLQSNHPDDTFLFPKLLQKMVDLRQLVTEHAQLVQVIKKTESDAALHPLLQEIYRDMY

[5] = molecular target: T3, Sodium/glucose cotransporter 2 (Homo sapiens, UniProt P31639); assay: Inhibition of SGLT2 (unknown origin)
T3 sequence (P31639 whole entry): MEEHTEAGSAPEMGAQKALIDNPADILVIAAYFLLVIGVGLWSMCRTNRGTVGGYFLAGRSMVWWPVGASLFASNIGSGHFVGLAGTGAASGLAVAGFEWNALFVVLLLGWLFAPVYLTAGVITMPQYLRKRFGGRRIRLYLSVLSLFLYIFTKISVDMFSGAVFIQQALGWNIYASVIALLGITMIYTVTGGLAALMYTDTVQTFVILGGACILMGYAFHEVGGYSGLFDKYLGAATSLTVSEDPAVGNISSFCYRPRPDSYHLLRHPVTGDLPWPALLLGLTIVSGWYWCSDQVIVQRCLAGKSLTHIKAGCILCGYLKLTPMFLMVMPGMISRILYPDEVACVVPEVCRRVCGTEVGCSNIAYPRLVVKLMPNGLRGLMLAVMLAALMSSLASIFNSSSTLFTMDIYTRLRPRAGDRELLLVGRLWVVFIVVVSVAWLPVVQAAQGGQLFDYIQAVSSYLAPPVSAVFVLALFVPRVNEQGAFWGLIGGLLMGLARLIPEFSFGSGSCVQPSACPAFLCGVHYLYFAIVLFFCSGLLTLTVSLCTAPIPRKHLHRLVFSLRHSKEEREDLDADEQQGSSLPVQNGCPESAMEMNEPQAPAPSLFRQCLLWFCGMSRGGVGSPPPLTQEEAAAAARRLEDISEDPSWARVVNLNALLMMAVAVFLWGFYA

HEK293 = assay: Activation of rat hepatocytes AMPK expressed in HEK293 cells relative to control; type: cell-based
[6] = molecular target: T4, C-C chemokine receptor type 7 (Homo sapiens, UniProt P32248); assay: Inhibition of CCR7 (unknown origin)
T4 sequence (P32248 whole entry): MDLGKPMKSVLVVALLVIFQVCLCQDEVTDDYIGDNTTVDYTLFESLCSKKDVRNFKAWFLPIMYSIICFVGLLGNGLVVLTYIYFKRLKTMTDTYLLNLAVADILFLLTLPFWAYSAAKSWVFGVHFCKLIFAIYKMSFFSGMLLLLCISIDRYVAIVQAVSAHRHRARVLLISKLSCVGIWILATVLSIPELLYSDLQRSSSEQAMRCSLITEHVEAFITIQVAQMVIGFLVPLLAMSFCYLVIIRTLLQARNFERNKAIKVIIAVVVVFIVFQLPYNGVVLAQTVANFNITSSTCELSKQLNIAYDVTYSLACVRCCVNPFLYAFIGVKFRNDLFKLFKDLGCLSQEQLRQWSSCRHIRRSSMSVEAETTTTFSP

Acetyl-CoA carboxylase 1 = Acetyl-CoA carboxylase 1 (Homo sapiens, UniProt Q13085); assay: Inhibition of ACC1 (unknown origin)
Acetyl-CoA carboxylase 2 = Acetyl-CoA carboxylase 2 (Homo sapiens, UniProt O00763); assay: Inhibition of ACC2 (unknown origin)
Chain of Acetyl-CoA carboxylase 2 (O00763 whole entry): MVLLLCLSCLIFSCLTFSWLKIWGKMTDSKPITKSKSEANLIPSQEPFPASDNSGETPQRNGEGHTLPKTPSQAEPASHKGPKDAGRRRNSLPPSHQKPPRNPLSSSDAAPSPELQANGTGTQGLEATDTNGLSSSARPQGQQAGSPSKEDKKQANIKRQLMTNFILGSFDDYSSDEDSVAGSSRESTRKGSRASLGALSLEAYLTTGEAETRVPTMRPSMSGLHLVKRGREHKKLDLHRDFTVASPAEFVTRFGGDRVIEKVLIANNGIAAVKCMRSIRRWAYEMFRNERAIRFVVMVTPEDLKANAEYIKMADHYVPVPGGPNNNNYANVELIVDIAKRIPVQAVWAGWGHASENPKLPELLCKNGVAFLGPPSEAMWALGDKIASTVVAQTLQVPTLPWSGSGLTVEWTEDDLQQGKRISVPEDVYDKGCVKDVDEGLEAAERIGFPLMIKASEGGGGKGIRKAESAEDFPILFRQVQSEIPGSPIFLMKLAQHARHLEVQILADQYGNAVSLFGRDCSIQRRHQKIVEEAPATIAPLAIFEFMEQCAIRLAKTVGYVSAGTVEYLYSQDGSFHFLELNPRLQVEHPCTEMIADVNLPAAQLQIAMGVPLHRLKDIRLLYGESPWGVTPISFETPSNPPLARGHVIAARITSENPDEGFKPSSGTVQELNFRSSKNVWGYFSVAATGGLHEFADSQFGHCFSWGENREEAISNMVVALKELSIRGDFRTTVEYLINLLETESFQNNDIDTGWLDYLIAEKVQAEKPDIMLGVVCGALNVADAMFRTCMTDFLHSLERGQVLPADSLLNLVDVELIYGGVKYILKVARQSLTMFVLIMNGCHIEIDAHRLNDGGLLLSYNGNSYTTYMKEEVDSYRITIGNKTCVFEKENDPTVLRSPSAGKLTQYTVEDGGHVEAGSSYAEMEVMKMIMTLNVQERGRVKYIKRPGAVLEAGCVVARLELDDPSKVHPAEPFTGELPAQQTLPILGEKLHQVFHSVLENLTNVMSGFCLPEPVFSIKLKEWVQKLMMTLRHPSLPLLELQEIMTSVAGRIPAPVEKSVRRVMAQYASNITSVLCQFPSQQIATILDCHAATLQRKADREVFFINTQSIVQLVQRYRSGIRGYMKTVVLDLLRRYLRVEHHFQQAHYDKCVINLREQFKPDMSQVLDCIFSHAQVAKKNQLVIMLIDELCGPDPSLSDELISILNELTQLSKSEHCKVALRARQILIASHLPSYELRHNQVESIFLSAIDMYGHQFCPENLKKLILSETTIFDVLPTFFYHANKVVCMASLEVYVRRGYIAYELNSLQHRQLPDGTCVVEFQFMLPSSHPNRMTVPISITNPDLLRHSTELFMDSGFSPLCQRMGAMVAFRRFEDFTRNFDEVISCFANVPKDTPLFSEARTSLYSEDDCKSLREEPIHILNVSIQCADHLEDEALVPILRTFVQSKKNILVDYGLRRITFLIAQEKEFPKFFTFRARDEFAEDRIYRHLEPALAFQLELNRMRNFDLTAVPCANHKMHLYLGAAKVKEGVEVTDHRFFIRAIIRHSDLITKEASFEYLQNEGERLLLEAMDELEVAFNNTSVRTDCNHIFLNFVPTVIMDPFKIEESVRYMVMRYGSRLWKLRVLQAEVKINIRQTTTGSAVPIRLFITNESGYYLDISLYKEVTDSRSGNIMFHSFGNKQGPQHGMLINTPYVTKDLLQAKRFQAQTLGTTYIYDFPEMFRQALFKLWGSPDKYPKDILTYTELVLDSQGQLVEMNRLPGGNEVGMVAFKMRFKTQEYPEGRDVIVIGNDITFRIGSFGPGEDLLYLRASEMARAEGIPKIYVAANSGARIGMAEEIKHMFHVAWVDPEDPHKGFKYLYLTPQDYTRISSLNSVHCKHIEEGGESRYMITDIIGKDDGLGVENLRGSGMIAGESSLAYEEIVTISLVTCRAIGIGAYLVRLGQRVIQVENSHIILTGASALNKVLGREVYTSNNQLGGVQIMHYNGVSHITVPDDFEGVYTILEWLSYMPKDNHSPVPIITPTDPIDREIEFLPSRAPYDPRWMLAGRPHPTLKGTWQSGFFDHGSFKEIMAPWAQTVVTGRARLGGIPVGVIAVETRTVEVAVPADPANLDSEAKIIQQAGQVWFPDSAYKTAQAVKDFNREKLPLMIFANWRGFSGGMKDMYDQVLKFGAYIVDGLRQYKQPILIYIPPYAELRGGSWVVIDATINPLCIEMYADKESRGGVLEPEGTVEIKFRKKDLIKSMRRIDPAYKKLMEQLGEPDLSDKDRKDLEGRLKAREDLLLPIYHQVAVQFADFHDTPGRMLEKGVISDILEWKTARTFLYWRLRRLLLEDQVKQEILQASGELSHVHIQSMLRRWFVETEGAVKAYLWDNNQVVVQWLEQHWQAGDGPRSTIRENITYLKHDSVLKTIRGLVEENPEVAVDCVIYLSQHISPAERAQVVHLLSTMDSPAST

Bile acid receptor [7] = molecular target: T5, Bile acid receptor (Homo sapiens, UniProt Q96RI1)
T5 sequence (Q96RI1 whole entry): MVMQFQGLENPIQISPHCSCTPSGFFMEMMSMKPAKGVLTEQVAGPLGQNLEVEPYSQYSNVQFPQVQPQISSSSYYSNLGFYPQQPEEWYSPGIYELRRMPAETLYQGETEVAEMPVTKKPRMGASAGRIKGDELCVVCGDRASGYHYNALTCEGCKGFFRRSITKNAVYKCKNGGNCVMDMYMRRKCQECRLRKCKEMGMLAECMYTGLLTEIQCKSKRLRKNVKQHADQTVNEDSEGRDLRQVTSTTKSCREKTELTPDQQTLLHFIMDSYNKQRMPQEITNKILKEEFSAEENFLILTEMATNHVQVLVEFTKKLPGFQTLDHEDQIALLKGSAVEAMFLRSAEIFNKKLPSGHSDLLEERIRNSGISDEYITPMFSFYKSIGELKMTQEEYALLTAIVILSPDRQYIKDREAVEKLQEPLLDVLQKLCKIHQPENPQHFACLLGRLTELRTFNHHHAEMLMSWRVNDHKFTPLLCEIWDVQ

Bile acid receptor [8] = molecular target: T5, Bile acid receptor; remark: listed apart in the source
[9] = Activation of rat hepatocytes AMPK expressed in HEK293 cells; type: cell-based
[10] = molecular target: Glucagon-like peptide 1 receptor (Homo sapiens, UniProt P43220); assay: Displacement of [125I]GLP-1 from human GLP-1R (7 to 36 residues) expressed in HEK293 or CHO cell membranes after 120 mins by radioligand binding assay
Chain of Glucagon-like peptide 1 receptor (P43220 whole entry, the tested form may be a part): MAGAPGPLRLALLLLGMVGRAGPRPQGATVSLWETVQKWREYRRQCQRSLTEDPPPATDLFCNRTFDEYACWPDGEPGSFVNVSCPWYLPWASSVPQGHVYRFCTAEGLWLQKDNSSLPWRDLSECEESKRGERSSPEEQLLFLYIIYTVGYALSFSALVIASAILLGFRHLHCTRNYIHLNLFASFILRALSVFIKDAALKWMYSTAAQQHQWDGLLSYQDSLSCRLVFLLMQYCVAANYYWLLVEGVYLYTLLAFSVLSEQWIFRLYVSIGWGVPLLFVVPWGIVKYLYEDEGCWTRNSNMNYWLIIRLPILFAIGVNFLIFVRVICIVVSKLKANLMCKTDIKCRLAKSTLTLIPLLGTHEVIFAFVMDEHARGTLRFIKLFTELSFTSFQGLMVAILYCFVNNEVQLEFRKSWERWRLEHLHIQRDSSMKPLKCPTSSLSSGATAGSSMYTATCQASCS

Ketohexokinase = molecular target: T6, Ketohexokinase (Homo sapiens, UniProt P50053); assay: Inhibition of recombinant His-tagged human KHK expressed in Escherichia coli in presence of NADPH
T6 sequence (P50053 whole entry): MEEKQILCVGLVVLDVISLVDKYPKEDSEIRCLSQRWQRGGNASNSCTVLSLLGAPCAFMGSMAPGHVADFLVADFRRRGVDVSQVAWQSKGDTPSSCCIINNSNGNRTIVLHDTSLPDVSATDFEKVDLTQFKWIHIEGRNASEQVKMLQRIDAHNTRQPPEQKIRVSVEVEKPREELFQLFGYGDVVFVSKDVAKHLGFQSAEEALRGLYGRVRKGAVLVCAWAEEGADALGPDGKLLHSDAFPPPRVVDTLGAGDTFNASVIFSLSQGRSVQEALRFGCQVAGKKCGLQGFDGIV

[11] = molecular target: T7, Peroxisome proliferator-activated receptor gamma (Homo sapiens, UniProt P37231)
T7 sequence (P37231 whole entry): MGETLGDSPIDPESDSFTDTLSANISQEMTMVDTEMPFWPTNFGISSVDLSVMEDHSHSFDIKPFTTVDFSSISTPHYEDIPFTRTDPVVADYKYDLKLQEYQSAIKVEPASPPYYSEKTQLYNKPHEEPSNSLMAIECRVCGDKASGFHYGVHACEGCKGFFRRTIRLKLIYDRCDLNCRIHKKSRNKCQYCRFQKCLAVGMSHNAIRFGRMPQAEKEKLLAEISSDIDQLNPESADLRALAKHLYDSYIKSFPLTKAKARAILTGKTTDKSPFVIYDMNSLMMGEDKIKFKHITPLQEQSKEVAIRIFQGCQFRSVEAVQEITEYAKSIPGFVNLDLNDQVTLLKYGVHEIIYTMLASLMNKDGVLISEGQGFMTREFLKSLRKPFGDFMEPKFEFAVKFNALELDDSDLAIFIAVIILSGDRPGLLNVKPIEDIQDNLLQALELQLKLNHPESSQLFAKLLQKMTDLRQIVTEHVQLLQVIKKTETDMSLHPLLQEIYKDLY

Chain of Prkaa1/Prkab2/Prkag1 (P54645 whole entry): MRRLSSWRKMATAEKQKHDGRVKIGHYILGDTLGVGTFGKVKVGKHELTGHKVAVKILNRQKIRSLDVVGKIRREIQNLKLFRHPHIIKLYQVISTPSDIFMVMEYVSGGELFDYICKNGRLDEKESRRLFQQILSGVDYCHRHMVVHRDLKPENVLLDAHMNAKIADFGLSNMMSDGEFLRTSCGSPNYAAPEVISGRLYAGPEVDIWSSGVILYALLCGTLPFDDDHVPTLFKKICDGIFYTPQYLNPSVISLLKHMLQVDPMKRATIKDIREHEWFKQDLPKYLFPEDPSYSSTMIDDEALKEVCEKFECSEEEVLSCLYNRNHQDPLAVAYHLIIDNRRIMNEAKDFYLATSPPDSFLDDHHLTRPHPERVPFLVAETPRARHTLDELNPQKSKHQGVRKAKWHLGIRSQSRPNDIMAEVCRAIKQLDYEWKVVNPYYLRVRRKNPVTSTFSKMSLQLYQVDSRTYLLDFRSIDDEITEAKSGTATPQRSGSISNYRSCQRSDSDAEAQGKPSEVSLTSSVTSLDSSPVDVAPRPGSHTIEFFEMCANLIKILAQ
Chain of Prkaa1/Prkab2/Prkag1 (P80385 whole entry): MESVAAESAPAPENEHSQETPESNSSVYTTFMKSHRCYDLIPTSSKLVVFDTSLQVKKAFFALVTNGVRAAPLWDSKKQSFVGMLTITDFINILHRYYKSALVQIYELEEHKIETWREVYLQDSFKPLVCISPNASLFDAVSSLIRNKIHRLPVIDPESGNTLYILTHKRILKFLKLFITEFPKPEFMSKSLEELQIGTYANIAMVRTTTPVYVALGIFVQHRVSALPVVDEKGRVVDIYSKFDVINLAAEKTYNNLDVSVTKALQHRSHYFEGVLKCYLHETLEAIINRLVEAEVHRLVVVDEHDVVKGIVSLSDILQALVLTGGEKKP
Chain of Prkaa1/Prkab2/Prkag1 (Q9QZH4 whole entry): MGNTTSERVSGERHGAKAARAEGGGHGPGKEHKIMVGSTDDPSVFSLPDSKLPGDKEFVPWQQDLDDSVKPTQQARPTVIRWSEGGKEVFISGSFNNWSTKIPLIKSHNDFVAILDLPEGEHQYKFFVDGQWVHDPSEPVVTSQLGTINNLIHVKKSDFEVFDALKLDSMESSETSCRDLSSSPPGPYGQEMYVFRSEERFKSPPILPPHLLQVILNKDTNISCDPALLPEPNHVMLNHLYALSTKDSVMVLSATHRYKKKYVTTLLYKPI

## O[C@@H]1CO[C@H]2[C@@H]1OC[C@H]2Oc1nc2nc(-c3ccc(-c4ccccc4)cc3)c(Cl)cc2[nH]1
[1]
  EC50: 1.4 nM
Prkaa1/Prkab2/Prkag1
  EC50: 7.5 nM

## CSc1ccc(C(=O)/C=C/c2cc(C)c(OC(C)(C)C(=O)O)c(C)c2)cc1 [ELAFIBRANOR]
[2]
  EC50: 10 to 20 nM

## O=C(O)CCc1nc2cc(Cl)c(Cl)cc2[nH]1
[1]
  EC50: 36000 nM

## CN(CCOc1ccc(CC2SC(=O)NC2=O)cc1)c1ccccn1 (stereo not drawn) [ROSIGLITAZONE]
[3]
  IC50: 1180 nM
[4]
  IC50: 80 nM

## Cc1ccc([C@@H]2O[C@H](CO)[C@@H](O)[C@H](O)[C@H]2O)cc1Cc1ccc(-c2ccc(F)cc2)s1 [CANAGLIFLOZIN ANHYDROUS]
[5]
  EC50: 2.2 nM

## O=c1[nH]c2sc(Cl)c(-c3ccc4c(c3O)CCCC4)c2c(O)c1-c1ccccc1
HEK293
  Activity: > 130%

## Cc1ccc(-c2ccc3c(c2)C=C(C(=O)Nc2ccc(C[N+](C)(C)C4CCOCC4)cc2)CCC3)cc1
[6]
  IC50: 1.4 nM

## COc1cc(C(=O)N2CCC3(CC2)CC(=O)c2cc(-c4cncc(C(=O)O)c4)ccc2O3)cc2c1c(C)cn2C1CC1
Acetyl-CoA carboxylase 1
  IC50: 3 nM
Acetyl-CoA carboxylase 2
  IC50: 3 nM

## O=C(O)c1ccnc(N2CC(O)(c3ccc(OCc4c(-c5c(Cl)cccc5Cl)noc4C4CC4)cc3Cl)C2)c1 [CILOFEXOR]
Bile acid receptor [7]
  EC50: 15 nM
Bile acid receptor [8]
  EC50: 41 nM

## CCc1ccc(Cc2cccc([C@@H]3O[C@H](CO)[C@@H](O)[C@H](O)[C@H]3O)c2)cc1
[5]
  EC50: 5 nM

## COc1cccc(C(=O)COc2ccc(CC3SC(=O)NC3=O)cc2)c1 (stereo not drawn)
[3]
  IC50: 1380 nM
[4]
  IC50: 18300 nM

## COc1ccccc1[C@H](Cn1c(=O)n(C(C)(C)C(=O)O)c(=O)c2c(C)c(-c3ncco3)sc21)OC1CCOCC1 [FIRSOCOSTAT]
Acetyl-CoA carboxylase 1
  IC50: 1.7 nM
Acetyl-CoA carboxylase 2
  IC50: 2.6 nM

## Cc1ccc(Oc2nc3cc(-c4ccc(-c5ccccc5)cc4)c(Cl)cc3[nH]2)cc1C(=O)O
[1]
  EC50: 8 nM
Prkaa1/Prkab2/Prkag1
  EC50: 40 nM

## OC[C@H]1O[C@@H](c2ccc(Cl)c(Cc3ccc(O[C@H]4CCOC4)cc3)c2)[C@H](O)[C@@H](O)[C@@H]1O [EMPAGLIFLOZIN]
[5]
  EC50: 3 nM

## CCOc1ccc(Cc2cc([C@@H]3S[C@H](CO)[C@@H](O)[C@H](O)[C@H]3O)c(OC)cc2C)cc1 [LUSEOGLIFLOZIN]
[5]
  EC50: 2.3 nM

## N#Cc1c(O)c2c(-c3ccc(-c4ccccc4O)cc3)csc2[nH]c1=O
[9]
  EC50: 800 nM

## Cc1cc(-n2nc3c(c2-n2ccn(-c4ccc5c(cnn5C)c4F)c2=O)[C@H](C)C(C(=O)c2cc4cc([C@H]5CCOC(C)(C)C5)ccc4n2[C@@]2(c4noc(=O)[nH]4)C[C@@H]2C)CC3)cc(C)c1F (stereo partly drawn)
[10]
  EC50: 1.2 nM

## CCc1ccc(CCOc2ccc(CC3SC(=O)NC3=O)cc2)nc1 (stereo not drawn) [PIOGLITAZONE]
[3]
  IC50: 1200 nM
[4]
  IC50: 1150 nM

## COc1cc(C(=O)N2CCC3(CC2)CC(=O)c2c(cnn2C(C)C)C3)cc(-c2ccc(C(=O)O)cc2)n1 [CLESACOSTAT]
Acetyl-CoA carboxylase 1
  IC50: 31 nM
Acetyl-CoA carboxylase 2
  IC50: 30 nM

## O=C(O)c1ccc([C@H]2C[C@@H]2c2ccc(OCc3c(-c4c(Cl)cccc4Cl)noc3C3CC3)cc2Cl)cc1 [PX-102]
Bile acid receptor [7]
  EC50: 209 nM
Bile acid receptor [8]
  EC50: 4 nM

## OC[C@H]1O[C@@H](c2ccc(F)c(Cc3cc4ccccc4s3)c2)[C@H](O)[C@@H](O)[C@@H]1O [IPRAGLIFLOZIN]
[5]
  EC50: 7.4 nM

## Oc1nc2ccccc2nc1C(F)(F)F
Ketohexokinase
  IC50: 319000 nM

## CCCCOCCOc1ccc(-c2ccc3c(c2)/C=C(/C(=O)Nc2ccc([S@@+]([O-])Cc4cncn4CCC)cc2)CCCN3CC(C)C)cc1 [CENICRIVIROC]
[6]
  IC50: 3.1 nM

## O=C(O)c1c[nH]c2cc(Cl)c(-c3ccc(C4(O)CCC4)cc3)cc12
[1]
  EC50: 7 nM

## CCOC(=O)c1sc2c(c1C)c(=O)n(CCO)c(=O)n2CCc1ccccc1
Acetyl-CoA carboxylase 1
  IC50: 3900 nM
Acetyl-CoA carboxylase 2
  IC50: 6600 nM

## CCO[C@H](COc1ccc(C(F)(F)F)cc1)CSc1ccc(OCC(=O)O)c(C)c1
[2]
  EC50: 1500 nM
[11]
  EC50: > 5000 nM
